Values quoted from earlier work in US20150328215A1, “STABLE AMORPHOUS RALTEGRAVIR POTASSIUM PREMIX AND PROCESS FOR THE PREPARATION THEREOF” (priority 2012, published 2015).

Legend:
[1] = water
[2] = in vivo

| Compound | aqueous solubility [1] | bioavailability compared with Raltegravir free base [2] |
| --- | --- | --- |
| Cc1nnc(C(=O)NC(C)(C)c2nc(C(=O)NCc3ccc(F)cc3)c([O-])c(=O)n2C)o1.[K+] [potassium salt of Raltegravir, potassium N-(4-fluorobenzyl)-5-hydroxy-1-methyl-2-(1-methyl-1-{[(5-methyl-1,3,4-oxadiazol-2-yl)carbonyl]amino}ethyl)-6-oxo-1,6-dihydropyrimidine-4-carboxamide] | significantly more soluble in water | – |
| Cc1nnc(C(=O)NC(C)(C)c2nc(C(=O)NCc3ccc(F)cc3)c([O-])c(=O)n2C)o1.[K+] [Form 1] | – | superior bioavailability |
| Cc1nnc(C(=O)NC(C)(C)c2nc(C(=O)NCc3ccc(F)cc3)c(O)c(=O)n2C)o1 [Raltegravir] | poor aqueous solubility | – |
